Assay in all cases: NCI tumour cell line growth inhibition, 48 h
Assay [1] deals with IGROV1 ovarian.
Assay [2] relates to M14 melanoma.
For assay [3], the system named is MDA-MB-435.
The subject of assay [4] is MOLT-4 leukemia.
The subject of assay [5] is NCI-H23 lung.
In assay [6] the test system is RPMI-8226 leukemia.
The test system of assay [7] is SK-MEL-2 melanoma.
Assay [8] concerns SW-620 colon.
The subject of assay [9] is T-47D breast.
Assay [10] relates to UACC-257 melanoma.

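Each compound was tested at five concentrations against cells in 96-well plates for 48 hours. TGI: total growth inhibition.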

Turning to `NS(=O)(=O)c1nc(S(=O)(=O)O)c2[nH]cnc2n1`, the TGI in assay [1], in [2], in assay [3], in assay [4], in [5] and in assay [6] was above 100 µM throughout. The TGI in assay [7], in assay [8], in assay [9] and in [10] was above 100 µM in each case.
On to `O=C(O)CSc1ccccc1C(=O)O`, for which the TGI in assay [1], in [2], in [3], in [4], in assay [5] and in assay [6] was above 100 µM each time. For the same compound, the TGI in assay [7] was above 100 µM; in assay [8] it was above 100 µM; in assay [9] it was above 100 µM; in assay [10], 34.1 µM.
Take `c1nc(NCCc2cnc[nH]2)c2[nH]cnc2n1`: the TGI in [1], in assay [2], in assay [3], in assay [4], in assay [5] and in assay [6] was above 100 µM throughout. Besides, the TGI in assay [7], in assay [8], in assay [9] and in assay [10] was above 100 µM throughout.
In the case of `NNC(=O)Nc1nc2ccc(NN)cc2[nH]1`, the TGI in assay [1] is above 100 µM; in assay [2], 84.4 µM; in [3], 54 µM; in [4], 32.3 µM; in assay [5], above 100 µM; in [6], 26.7 µM. Also, the TGI in assay [7] is above 100 µM; in assay [8], 67.4 µM; in [9], above 100 µM; in assay [10], 88.1 µM.
In the case of `Cc1cccc2c(N)c3cccc(C(=O)NCC[N+](C)(C)Cc4ccc([N+](=O)[O-])s4)c3nc12`, the TGI in [1] is 26 µM; in assay [2], 39.7 µM; in [3], above 63.9 µM; in [4], 9.36 µM; in assay [5], 21.9 µM; in assay [6] it was 34.1 µM. Besides, the TGI in [7] is above 77.6 µM; in assay [8], above 66.3 µM; in [9], above 67.6 µM; in assay [10] it was above 78 µM.
For `CCCCc1ccc(Nc2ncc3ncn(COCCO)c3n2)cc1`, the TGI in assay [1] was above 100 µM; in assay [2], 53 µM; in [3], 87.5 µM; in [4], 53.1 µM; in assay [5] it was above 100 µM; in assay [6] it was 50 µM. The TGI in assay [7] was 73.1 µM; in assay [8] it was above 100 µM; in assay [9], above 100 µM; in [10], 72.5 µM.
Take `COC(=O)[C@H](Cc1c[nH]c2ccccc12)NP(=O)(OCCC#N)OCC1OC(n2cc(C)c(=O)[nH]c2=O)CC1N=[N+]=[N-]` (stereo not given in full): the TGI in assay [1], in [2], in [3], in assay [4], in assay [5] and in [6] was above 100 µM each time. Also, the TGI in assay [7], in assay [8], in assay [9] and in assay [10] was above 100 µM in each case.
As for `CC1CC[C@@]2(OC1)O[C@H]1[C@H](O)[C@H]3[C@@H]4CC[C@H]5C[C@@H](OC6OC(CO)C(OC7OC(CO)C(O)C(OC8OCC(O)C(O)C8O)C7OC7OC(CO)C(O)C(O)C7OC7OC(CO)C(O)C(O)C7O)C(O)C6O)[C@H](O)C[C@]5(C)[C@H]4CC[C@]3(C)[C@H]1[C@@H]2C` (stereo not given in full), the TGI is above 10 µM in assay [1]; above 10 µM in [2]; above 10 µM in assay [3]; 1.19 µM in [4]; above 10 µM in assay [5]; 5.14 µM in assay [6]. Moreover, the TGI in assay [7], in [8], in assay [9] and in [10] was above 10 µM throughout.
As for `CCOC(=O)/C(C(N)=O)=C(\O)C(=O)/C(Br)=C(\O)c1ccccc1`, the TGI in assay [1] was determined as 31.1 µM; in assay [2], 29.3 µM; in assay [3], 31.6 µM; in assay [4] it was 8.33 µM; in assay [5] it was 37.3 µM; in assay [6], 29.4 µM. Also, the TGI in [7] was determined as 37.4 µM; in assay [8], 35.2 µM; in assay [9] it was 54.4 µM; in [10], 31.8 µM.
For `CCOC(=O)C1CC(C(=O)c2ccccc2)N2c3ccccc3-c3ccccc3C12` (stereo not given), the TGI is above 100 µM in assay [1]; 74.2 µM in assay [2]; above 100 µM in [3]; above 100 µM in [4]; above 100 µM in assay [5]; 40.8 µM in assay [6]. In addition, the TGI in assay [7], in [8], in assay [9] and in [10] was above 100 µM in each case.
In the case of `NC(Cc1ccc(OCc2ccccc2)cc1)C(=O)NC(Cc1ccccc1)C(=O)Oc1c(Cl)c(Cl)c(Cl)c(Cl)c1Cl` (stereo not given), the TGI was 31.4 µM in assay [1]; 28.5 µM in [2]; 33.9 µM in [3]; above 100 µM in assay [4]; 30.6 µM in [5]; above 100 µM in [6]. In addition, the TGI in assay [7] worked out at 26.5 µM; in assay [8], 31.7 µM; in assay [9], 37.1 µM; in assay [10], 32.8 µM.
As to `Fc1cccc(F)c1C1SCc2nc3cc(Cl)c(Cl)cc3n21` (stereo not given), the TGI in assay [1], in assay [2], in assay [3], in assay [4], in [5] and in assay [6] was above 100 µM in each case. In addition, the TGI in [7], in assay [8], in assay [9] and in assay [10] was above 100 µM each time.
On to `COC(=O)C1CC2(C)C=CC1N(C(=O)OCc1ccccc1)C2` (stereo not given), for which the TGI in assay [1], in assay [2], in [3], in assay [4], in [5] and in [6] was above 100 µM each time. For the same compound, the TGI in [7], in [8], in assay [9] and in [10] was above 100 µM in each case.
